# Reference: US9468670B2, “Melatonin-based treatment and diagnosis of bile duct disease” (Texas A&M University System, priority 2011, dated 2016)
# What was measured:
# [1] = system: PER1, BMAL1, CRY1, CLOCK, MT1 and MT2; assay: FACS analysis of clock proteins and MT1/MT2 in large mouse cholangiocyte lines; type: cell-based; conditions: in vitro melatonin vs. basal value
# Protocol: (i) in paraffin-embedded liver sections ([…]) from normal and BDL control rats by immunohistochemistry ([…] al., 2009); and (ii) in total RNA (1 μg, by real-time PCR) (Francis et al., 2008) from purified cholangiocytes. […] FACS analysis was performed as described (Onori et al., 2010) using a C6 flow cytometer and analyzed by CFlow Software (Accuri Cytometers Inc. Ann Arbor, Mich.). At least 10,000 events in the light-scatter (SSC/FSC) were acquired. The expression of the selected protein was identified and gated on FL1-A/Count plots. The relative quantity of the selected protein (mean selected protein fluorescence) was expressed as mean FL1-A (samples)/mean FL-1A (secondary antibodies only).
# [2] = Liver and body weight of nude mice bearing Mz-ChA-1 tumors; type: in vivo, nude (nu/nu) mice; conditions: 4 mg/kg BW IP three times a week
# Protocol: Experiments were performed to evaluate the in vivo effect of melatonin on the growth of cholangiocarcinoma cell lines implanted in the flanks of athymic mice (Francis H et al., 2009). Male BALB/c 6-wk-old nude (nu/nu) mice (Taconic Farms. Hudson, N.Y.) were kept in a temperature-controlled environment (20-22° C.) with 12-hr light-dark cycles, fed ad libitum standard mouse chow, and with free access to drinking water. Mz-ChA-1 cells (5×10^6) were suspended in 0.2 ml of extracellular matrix gel and injected subcutaneously in the rear flanks of the nude mice. After the establishment of the tumor (one week with a tumor size of ˜5 mm^3) mice (n=4) were treated with vehicle (5% ethanol in water) or melatonin (4 mg/kg BW, dissolved in 5% aqueous ethanol solution) (Sewerynek et al., 1995) by IP injections three times a week. Tumor variables were measured three times a week by an electronic caliper, and volume was determined as follows: tumor volume (mm^3)=0.5×[length (mm)×width (mm)×height (mm)]. The measurements started from the first week when the tumor mass was established. After 43 days of treatment, were anesthetized with sodium pentobarbital (50 mg/kg BW IP) and tumor tissues were harvested from the flanks of the mice. Heart, liver, and kidney tissues were collected for evaluation of organ damage by H&E staining of paraffin-embedded sections ([…]). All experiments were conducted under the guidelines of the Scott & White and Texas A&M HSC IACUC Committee. Tumors were allowed to grow until maximum allowable tumor burden was reached as set forth by the Scott & White and Texas A&M HSC IACUC tumor burden policy. Tumor tissues were fixed for 4 hr in 10% buffered formalin and embedded in low-temperature fusion paraffin. […] Semiquantitative analysis for these markers was evaluated by image-analysis software, Image-Pro Plus (Media Cybernetics, Silver Springs, Md.) (Lejeune et al., 2008). Three randomly chosen fields were calculated for statistics.
# CCA lines = assay: Proliferation by MTS assay in CCA lines and H69; type: cell-based, human; conditions: melatonin 10-7 to 10-11 M, 24-72 hours
# Protocol: (§1) Methods: Melatonin immunoreactivity, the expression of melatonin biosynthesis enzymes and receptors were assessed by immunohistochemistry in tissue arrays from normal and CCA patients, and by qPCR and immunoblots in intra-hepatic and extra-hepatic CCA cell lines, and a normal cholangiocyte line (H69). Proliferation was evaluated in vitro by MTS assay in CCA lines and H69 after treatment with melatonin (10-7 to 10-11 M, 24-72 hours). In parallel, the expression of CLOCK after melatonin treatment (10-11 M for 48 hours) was assessed in CCA lines and normal cholangiocytes by qPCR.
# CLOCK gene = assay: CLOCK expression by qPCR in CCA lines after melatonin; type: cell-based, human; conditions: melatonin 10-11 M for 48 hours
# Protocol: as §1
# cholangiocytes = assay: Biliary proliferation (PCNA, IBDM) and apoptosis (TUNEL) in Morpholino-treated rats; type: in vivo, rat; conditions: normal rats, 1 mg/Kg BW/day for 1 week via portal vein catheter
# Protocol: In separate experiments, normal rats treated with Vivo-Morpholino sequences of AANAT (5′-[…] (SEQ ID NO:1), to reduce the biliary expression of AANAT) or Morpholino mismatched (5′-[…] (SEQ ID NO:2)) (Gene Tools LCC) (1 mg/Kg BW/day) for 1 week via an implanted portal vein catheter. Serum, liver tissue, cholangiocytes, kidney, spleen, small intestine, stomach and heart were collected. Since our goal was to knock-down AANAT expression in the liver without inhibiting AANAT expression in other organs, we used a lower dose (1 mg/Kg/day) of Vivo-Morpholino than that described in the original study (3.0 mg/kg/day (Arora et al., 2002). This approach minimizes the amount of Vivo-Morpholino that circulates outside of the liver after slow infusion into the portal vein. See below for the surgical procedure for the implantation of the portal vein catheter by which AANAT Vivo-Morpholino or Morpholino mismatched was administered.
# Biliary proliferation was determined by measurement of the percentage of PCNA-positive cholangiocytes by immunohistochemistry, and intrahepatic bile duct mass (IBDM) by immunohistochemistry for CK-19 (Mancinelli et al., 2010). Biliary apoptosis was evaluated by semiquantitative terminal deoxynucleotidyltransferase biotin-dUTP nick-end labeling (TUNEL) kit (Chemicon International, Inc., Temecula, Calif.) (Mancinelli et al., 2010). IBDM was determined as the area occupied by CK-19 positive-bile duct/total area×100 (Mancinelli et al., 2010). The morphological changes/damage in liver, spleen, kidney, heart, stomach, and small intestine were evaluated from AANAT Vivo-Morpholino- or mismatch-treated rats by H&E staining. The serum levels of the transaminases, glutamate pyruvate transaminases (SGPT) and glutamic oxaloacetic transaminase (SGOT), alkaline phosphatase (ALP) and total bilirubin were evaluated using a Dimension RxL Max Integrated Chemistry system (Dade Behring Inc., Deerfield Ill.), Chemistry Department, Scott & White.
Compound,Expression of MT1 and MT2 (FACS) [1],"Expression of PER1, BMAL1, CRY1 and CLOCK (FACS) [1]",Body weight [2],Liver to body [2],Liver weight [2],Decrease in CCA growth compared to normal cholangiocytes (CCA lines),Increase in levels of the CLOCK gene in CCA cells (CLOCK gene),% IBDM (cholangiocytes),% PCNA-positive cholangiocytes (cholangiocytes),% apoptotic cholangiocytes (cholangiocytes)
COc1ccc2[nH]cc(CCNC(C)=O)c2c1 [melatonin],decreased,decreased,35.25 ± 0.73 gm,8.01% ± 0.21,2.82 ± 0.13 gm,65%,~50%,–,–,–
"AANAT Vivo-Morpholino: Vivo-Morpholino sequence of AANAT 5′-GTTCCCCAGCTTTGGAAGTGGTCCC (SEQ ID NO:1), to reduce the biliary expression of AANAT (all phosphorodiamidate morpholino (PMO); Vivo-Morpholino delivery moiety attached, position not given here, further chemistry not fully specified)",–,–,–,–,–,–,–,0.45 ± 0.10 %,8.98 ± 0.6 %,<5%
